We go through one molecule from US8562998B2, “Targeting of antigen presenting cells with immunonanotherapeutics” (President and Fellows of Harvard College, priority 2008, dated 2013).

The experiment deals with anti-nicotine IgG. Nature of the experiment: Anti-nicotine IgG titers in immunized mice (ELISA). Format: in vivo, C57BL6 mice. The note with it: immunized day 0, boosted after 2, 4 and 8 weeks.

As for `CN1CCCC1c1cccnc1` (stereo not shown) [free nicotine, nicotine], the “production of nicotine antibodies” value is “does not elicit the production of nicotine antibodies”.
